The text below walks through data of patent US8334382B2, “Substituted biaryl piperazinyl-pyridine analogues” (Neurogen Corporation, priority 2004, dated 2012).

The assay deals with T1, human capsaicin receptor (Homo sapiens, UniProt Q8NER1).
T1 construct: expressed in transfected cells; host or cells: HEK293, stably transfected with pBK-CMV construct
The assay can be described thus: Calcium mobilization assay, determination of antagonist activity. Format: cell-based. The conditions noted are these: capsaicin at EC50; cells expressing human capsaicin receptor; Example 6. The method, then: A cDNA encoding full length human capsaicin receptor (SEQ ID NO:1, 2 or 3 of U.S. Pat. No. 6,482,611) is subcloned in the plasmid pBK-CMV (Stratagene, La Jolla, Calif.) for recombinant expression in mammalian cells.
Human embryonic kidney (HEK293) cells are transfected with the pBK-CMV expression construct encoding the full length human capsaicin receptor using standard methods. The transfected cells are selected for two weeks in media containing G418 (400 μg/ml) to obtain a pool of stably transfected cells. Independent clones are isolated from this pool by limiting dilution to obtain clonal stable cell lines for use in subsequent experiments.
Cells transfected with expression plasmids (as described in Example 4) and thereby expressing human capsaicin receptor are seeded and grown to 70-90% confluency in FALCON black-walled, clear-bottomed 96-well plates (#3904, BECTON-DICKINSON, Franklin Lakes, N.J.). The culture medium is emptied from the 96 well plates and FLUO-3 AM calcium sensitive dye (Molecular Probes, Eugene, Oreg.) is added to each well (dye solution: 1 mg FLUO-3 AM, 440 μL DMSO and 440 μl 20% pluronic acid in DMSO, diluted 1:250 in Krebs-Ringer HEPES (KRH) buffer (25 mM HEPES, 5 mM KCl, 0.96 mM NaH2PO4, 1 mM MgSO4, 2 mM CaCl2, 5 mM glucose, 1 mM probenecid, pH 7.4), 50 μl diluted solution per well). Plates are covered with aluminum foil and incubated at 37° C. for 1-2 h in an environment containing 5% CO2. After the incubation, the dye is emptied from the plates, and the cells are washed once with KRH buffer, and resuspended in KRH buffer.
To measure the ability of a test compound to agonize or antagonize a calcium mobilization response in cells expressing capsaicin receptors to capsaicin or other vanilloid agonist, the EC50 of the agonist capsaicin is first determined. An additional 20 μl of KRH buffer and 1 μl DMSO is added to each well of cells, prepared as described above. 100 μl capsaicin in KRH buffer is automatically transferred by the FLIPR instrument to each well. Capsaicin-induced calcium mobilization is monitored using either FLUOROSKAN ASCENT (Labsystems; Franklin, Mass.) or FLIPR (fluorometric imaging plate reader system; Molecular Devices, Sunnyvale, Calif.) instruments. Data obtained between 30 and 60 seconds after agonist application are used to generate an 8-point concentration response curve, with final capsaicin concentrations of 1 nM to 3 μM. KALEIDAGRAPH software (Synergy Software, Reading, Pa.) is used to fit the data to the equation: y=a*(1/(1+(b/x)^c)) to determine the 50% excitatory concentration (EC50) for the response. In this equation, y is the maximum fluorescence signal, x is the concentration of the agonist or antagonist (in this case, capsaicin), a is the Emax, b corresponds to the EC50 value and c is the Hill coefficient. Determination of Agonist Activity
Test compounds are dissolved in DMSO, diluted in 20 μl KRH buffer so that the final concentration of test compounds in the assay well is between 1 μM and 5 μM, and added to cells prepared as described above. The 96 well plates containing prepared cells and test compounds are incubated in the dark, at room temperature for 0.5 to 6 h. It is important that the incubation not continue beyond 6 h. Just prior to determining the fluorescence response, 100 μl capsaicin in KRH buffer at twice the EC50 concentration determined as described above is automatically added by the FLIPR instrument to each well of the 96 well plate for a final sample volume of 200 μl and a final capsaicin concentration equal to the EC50. The final concentration of test compounds in the assay wells is between 1 μM and 5 μM. […] The concentration of antagonist required to provide a 50% decrease, relative to the response observed in the presence of capsaicin and without antagonist, is the IC50 for the antagonist, and is preferably below 1 micromolar, 100 nanomolar, 10 nanomolar or 1 nanomolar.
(A change in cytosolic calcium serves as a functional read-out for many receptors and channels.)

T1 sequence (Q8NER1 whole entry): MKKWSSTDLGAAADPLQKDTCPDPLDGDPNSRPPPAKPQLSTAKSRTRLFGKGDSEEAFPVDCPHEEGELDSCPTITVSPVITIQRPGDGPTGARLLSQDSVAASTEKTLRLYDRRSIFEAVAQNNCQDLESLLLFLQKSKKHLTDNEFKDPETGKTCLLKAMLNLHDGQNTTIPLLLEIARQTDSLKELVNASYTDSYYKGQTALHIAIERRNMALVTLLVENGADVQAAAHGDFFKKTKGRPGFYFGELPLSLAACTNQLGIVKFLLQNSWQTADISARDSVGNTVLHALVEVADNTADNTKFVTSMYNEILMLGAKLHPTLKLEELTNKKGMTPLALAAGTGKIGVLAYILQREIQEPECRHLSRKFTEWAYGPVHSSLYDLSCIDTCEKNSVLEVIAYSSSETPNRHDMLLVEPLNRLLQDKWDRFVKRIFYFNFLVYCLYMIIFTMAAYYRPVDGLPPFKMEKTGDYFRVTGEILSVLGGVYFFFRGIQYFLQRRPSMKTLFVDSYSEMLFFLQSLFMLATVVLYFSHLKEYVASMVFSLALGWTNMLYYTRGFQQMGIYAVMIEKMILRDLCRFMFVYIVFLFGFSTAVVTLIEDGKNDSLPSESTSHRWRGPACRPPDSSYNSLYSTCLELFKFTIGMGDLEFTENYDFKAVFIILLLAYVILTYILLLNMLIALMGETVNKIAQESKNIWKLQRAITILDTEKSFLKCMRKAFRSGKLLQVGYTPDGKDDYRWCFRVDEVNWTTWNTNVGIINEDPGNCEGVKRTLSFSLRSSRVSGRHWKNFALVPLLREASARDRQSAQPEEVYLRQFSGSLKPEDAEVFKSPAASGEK

The term IC50 denotes the concentration that gives 50% inhibition. Take `Cc1cc(CC(=O)OC(C)(C)C)cnc1N1CCN(c2cc(-c3ccc(F)cc3)nc(N3CCC[C@H]3C)n2)[C@H](C)C1` (relative stereo) [Example 190, tert-butyl rel-{6-[(3R)-4-{6-(4-fluorophenyl)-2-[(2R)-2-methylpyrrolidin-1-yl]pyrimidin-4-yl}-3-methylpiperazin-1-yl]-5-methylpyridin-3-yl}acetate]: the IC50 was not above 1 µM.

On to `C[C@@H]1CN(c2ncc(/C=C/CO)cc2Cl)CCN1c1cc(-c2ccc(F)c(Cl)c2)nc(N2CCC[C@H]2C)n1` (relative stereo) [Example 191, rel-(2E)-3-{5-chloro-6-[(3R)-4-{6-(3-chloro-4-fluorophenyl)-2-[(2R)-2-methylpyrrolidin-1-yl]pyrimidin-4-yl}-3-methylpiperazin-1-yl]pyridin-3-yl}prop-2-en-1-ol], for which the IC50 was not above 1 µM.

As for `Cc1cc(OCCO)cnc1N1CCN(c2cc(-c3ccc(F)cc3)nc(N3CCC[C@H]3C)n2)[C@H](C)C1` (relative stereo) [Example 192, rel-2-({6-[(3R)-4-{6-(4-fluorophenyl)-2-[(2R)-2-methylpyrrolidin-1-yl]pyrimidin-4-yl}-3-methylpiperazin-1-yl]-5-methylpyridin-3-yl}oxy)ethanol], the IC50 is not above 1 µM.

Take `C[C@@H]1CN(c2ncc(CCCO)cc2Cl)CCN1c1cc(-c2ccc(F)c(Cl)c2)nc(N2CCC[C@H]2C)n1` (relative stereo) [Example 193, rel-3-{5-chloro-6-[(3R)-4-{6-(3-chloro-4-fluorophenyl)-2-[(2R)-2-methylpyrrolidin-1-yl]pyrimidin-4-yl}-3-methylpiperazin-1-yl]pyridin-3-yl}propan-1-ol]: the half-inhibitory concentration (IC50) is not above 1 µM.

As for `CCOC(=O)c1cccnc1N1CCN(c2cc(-c3ccc(F)c(Cl)c3)nc(N3CCOCC3)n2)CC1` [Example 1, 2-{4-[6-(3-Chloro-4-fluoro-phenyl)-2-morpholin-4-yl-pyrimidin-4-yl]-piperazin-1-yl}-nicotinic acid ethyl ester], the IC50 is not above 1 µM.

Take `NC(=O)c1cccnc1N1CCN(c2cc(-c3ccc(F)c(Cl)c3)nc(N3CCOCC3)n2)CC1` [Example 2, 2-{4-[6-(3-Chloro-4-fluoro-phenyl)-2-morpholin-4-yl-pyrimidin-4-yl]-piperazin-l-yl}-nicotinamide]: the IC50 was not above 1 µM.

For the molecule `O=C(O)c1cccnc1N1CCN(c2cc(-c3ccc(F)c(Cl)c3)nc(N3CCOCC3)n2)CC1` [Example 3, 2-{4-[6-(3-Chloro-4-fluoro-phenyl)-2-morpholin-4-yl-pyrimidin-4-yl] - piperazin-1-yl}-nicotinic acid], the IC50 is not above 1 µM.

Turning to `O=[N+]([O-])c1cccnc1N1CCN(c2cc(-c3ccc(F)c(Cl)c3)nc(N3CCOCC3)n2)CC1` [Example 4, 4-{4-(3-Chloro-4-fluoro-phenyl)-6-[4-(3-nitro-pyridin-2-yl)-piperazin-1-yl]-pyrimidin-2-yl}-morpholine], the 50% inhibitory concentration (IC50) is not above 1 µM.

For the molecule `Cc1cc([N+](=O)[O-])cnc1N1CCN(c2cc(-c3ccc(F)c(Cl)c3)nc(N3CCCC3C)n2)CC1` (centres unmarked) [Example 5, 4-(3-Chloro-4-fluoro-phenyl)-6-[4-(3-methyl-5-nitro-pyridin-2-yl)-piperazin-1-yl]-2-(2-methyl-pyrrolidin-1-yl)-pyrimidine], the IC50 was not above 1 µM.

As for `Cc1cc(OCCN(C)C)cnc1N1CCN(c2cc(-c3ccc(F)c(Cl)c3)nc(N3CCCC3C)n2)CC1` (centres unmarked) [Example 6, [2-(6-{4-[6-(3-Chloro-4-fluoro-phenyl)-2-(2-methyl-pyrrolidin-1-yl)-pyrimidin-4-yl]-piperazin-1-yl}-5-methyl-pyridin-3-yloxy)-ethyl]-dimethyl-amine], the IC50 was not above 1 µM.

Turning to `CC1CCCN1c1nc(-c2ccc(F)c(Cl)c2)cc(N2CCN(c3nccc(C(=O)O)c3Cl)CC2)n1` (centres unmarked) [Example 7, 3-Chloro-2-{4-[6-(3-chloro-4-fluoro-phenyl)-2-(2-methyl-pyrrolidin-1-yl)-pyrimidin-4-yl]-piperazin-1-yl}-isonicotinic acid], the IC50 is not above 1 µM.

Consider `COC(=O)c1cnc(N2CCN(c3cc(-c4ccc(F)c(Cl)c4)nc(N4CCCC4C)n3)[C@H](C)C2)c(Cl)c1` (stereo partly drawn) [Example 8, 5-Chloro-6-{4-[6-(3-chloro-4-fluoro-phenyl)-2-(2-methyl-pyrrolidin-1-yl)-pyrimidin-4-yl]-3-(R)-methyl-piperazin-1-yl}-nicotinic acid methyl ester], for which the IC50 was not above 1 µM.

With `CC1CCCN1c1nc(-c2ccc(F)c(Cl)c2)cc(N2CCN(c3ncc(C(=O)O)cc3Cl)C[C@H]2C)n1` (stereo partly drawn) [Example 9, 5-Chloro-6-{4-[6-(3-chloro-4-fluoro-phenyl)-2-(2-methyl-pyrrolidin-1-yl)-pyrimidin-4-yl]-3-(R)-methyl-piperazin-l-yl}-nicotinic acid], the IC50 is not above 1 µM.

`CC1CCCN1c1nc(-c2ccc(F)c(Cl)c2)cc(N2CCN(c3ncc(CO)cc3Cl)CC2)n1` (centres unmarked) [Example 10, (5-Chloro-6-{4-[6-(3-chloro-4-fluoro-phenyl)-2-(2-methyl-pyrrolidin-1-yl)-pyrimidin-4-yl]-piperazin-1-yl}-pyridin-3-yl)-methanol]: the IC50 is not above 1 µM.

As for `CNCc1cnc(N2CCN(c3cc(-c4ccc(F)c(Cl)c4)nc(N4CCCC4C)n3)CC2)c(Cl)c1` (centres unmarked) [Example 11, (5-Chloro-6-{4-[6-(3-chloro-4-fluoro-phenyl)-2-(2-methyl-pyrrolidin-1-yl)-pyrimidin-4-yl]-piperazin-1-yl}-pyridin-3-ylmethyl)-methyl-amine], the IC50 is not above 1 µM.

In the case of `CC1CCCN1c1nc(-c2ccc(F)c(Cl)c2)cc(N2CCN(c3ncc(CN)cc3Cl)CC2)n1` (stereo not drawn) [Example 12, C-(5-Chloro-6-{4-[6-(3-chloro-4-fluoro-phenyl)-2-(2-methyl-pyrrolidin-l-yl)-pyrimidin-4-yl]-piperazin-1-yl}-pyridin-3-yl)-methylamine], the IC50 is not above 1 µM.

For `CC1CCCN1c1nc(-c2ccc(F)c(Cl)c2)cc(N2CCN(c3ncc(CO)cc3Cl)C[C@H]2C)n1` (stereo partly drawn) [Example 13, (5-Chloro-6-{4-[6-(3-chloro-4-fluoro-phenyl)-2-(2-methyl-pyrrolidin-1-yl)-pyrimidin-4-yl]-3-(R)-methyl-piperazin-1-yl}-pyridin-3-yl)-methanol], the IC50 was not above 1 µM.

Turning to `CCCN1CCN(c2nc(-c3ccc(F)c(Cl)c3)cc(N3CCN(c4ncc([N+](=O)[O-])cc4C)CC3)n2)CC1` [Example 14, 4-(3-Chloro-4-fluoro-phenyl)-6-[4-(3-methyl-5-nitro-pyridin-2-yl)-piperazin-l-yl]-2-(4-propyl-piperazin-1-yl)-pyrimidine], the IC50 was not above 1 µM.

In the case of `CC1CCCN1c1nc(-c2ccc(F)c(Cl)c2)cc(N2CCN(c3ncc(C(N)=O)cc3Cl)CC2)n1` (stereo not drawn) [Example 15, 5-Chloro-6-{4-[6-(3-chloro-4-fluoro-phenyl)-2-(2-methyl-pyrrolidin-1-yl)-pyrimidin-4-yl]-piperazin-l-yl}-nicotinamide], the IC50 was not above 1 µM.

With `CCCN1CCN(c2nc(-c3ccc(F)c(Cl)c3)cc(N3CCN(c4ncc(CO)cc4Cl)CC3)n2)CC1` [Example 16, (5-Chloro-6-{4-[6-(3-chloro-4-fluoro-phenyl)-2-(4-propyl-piperazin-1-yl)-pyrimidin-4-yl]-piperazin-1-yl}-pyridin-3-yl)-methanol], the IC50 is not above 1 µM.
